Laboratory results taken from patent publication US20260021082A1, “EZH2 INHIBITION THERAPIES FOR THE TREATMENT OF AT-RICH INTERACTIVE DOMAIN-CONTAINING PROTEIN 1A (ARID1A) MUTATED CANCERS” (Constellation Pharmaceuticals, Inc., priority 2022, published 2026).

What was measured:
[1] = pharmacokinetics in the ARID1A mutant HT1376 xenograft mouse model; format: in vivo
Procedure: (§1) Response of Compound 1 treatment relative to other EZH2, dual EZH1 and EZH2, or EED inhibitors was analyzed in vitro and in vivo.

[2] = system: ARID1A mutant HT1376 bladder cancer xenografts; experiment: HT1376 xenograft tumor growth inhibition; format: in vivo, mice; settings: ARID1A mutated HT1376 xenograft, 75 mg/kg QD; for tumor growth inhibition (TGI) compared to vehicle: day 27
Procedure: Data represented as mean tumor volume+SEM, with n=5 mice per group for all groups except 150 mg/kg, which had n=3. P-values calculated using 2-way ANOVA up to day 30, ns=p>0.05, *p<0.05. […]
Cell line derived xenograft tumor experiments were performed at WuXi AppTec, Shanghi, China. Patient derived xenograft experiments were performed at Crown BioScience Inc., Taicang Jiangsu Province, China, or Champions Oncology, Rockville, MD, US. All the procedures related to animal handling, care and the treatment in the xenograft studies were performed according to the guidelines approved by the Institutional Animal Care and Use Committee (IACUC) of WuXi AppTec or Crown BioScience Inc. following the guidance of the Association for Assessment and Accreditation of Laboratory Animal Care (AAALAC). The mice were kept in individual ventilation cages at constant temperature and humidity with 3-5 animals in each cage. Mice were checked daily for any effects of tumor growth and/or treatments on normal behavior such as mobility, food and water consumption, body weight gain/loss, eye, and any other abnormal effects. […] Animal body weight was monitored regularly as an indirect measurement of toxicity. Supplemented diet was provided after cell inoculation for all groups to help with body weight maintenance. If an animal lost >15% body weight, their treatments were suspended accordingly then resumed when body weight loss returned to <10%.
The HT1376 and HT1197 bladder cancer cell lines and Karpas-422 lymphoma cell line were expanded in vitro under routine subculturing procedures in the medium recommended by the supplier, harvested while in the exponential growth phase, and counted for tumor inoculation. For HT1376 and Karpas-422 studies, female CB17 SCID mice at 6-8 weeks of age were used for study initiation; for the HT1197 study, female Balb/c nude mice at 6-8 weeks of age were used. Each mouse was inoculated subcutaneously in the right flank with tumor cells in 0.2 ml PBS mixed with Matrigel (BD Biosciences); 5×10^6 cells per injection were used for HT1376 and Karpas-422 cell lines and 1×10^7 cells per injection for HT1197 cells. […] Mice undergoing extended dosing holidays due to body weight loss (>10 days, n=2 mice in the 150 mg/kg Compound 1 HT1376 group only), were censored from the study and not included in the data presented.
Tumor size was measured thrice weekly in two dimensions using a caliper, and the volume was expressed in mm3 using the formula: V=0.5a×b2 where a and b are the long and short diameters of the tumor, respectively. TGI was calculated for each group using the formula: TGI (%)=[1−(Ti−T0)/(Vi−V0)]×100; Ti is the average tumor volume of a treatment group on a certain day, T0 is the average tumor volume of the treatment group on the day of treatment start, Vi is the average tumor volume of the vehicle control group on the same day with Ti, and V0 is the average tumor volume of the vehicle group on the day of treatment start.
To further explore the potential dose dependence of Compound 1 on tumor growth inhibition in vivo, HT1376 xenograft studies were carried out using Compound 1 doses from 10 to 150 mg/kg QD orally once daily (PO, QD). […]

[3] = long-term cell viability assays in vitro, comparison of PRC2 inhibitors; format: cell-based
Procedure: as §1

[4] = Day 1, 75 mg/kg, HT1376 xenograft mouse, plasma
[5] = CB17 SCID, mouse, in vivo, 75 mg/kg

| SMILES | AUClast (hg*ng/mL) [1, 4] [hg*ng/mL] | Cmax [1, 4] [ng/mL] | T1/2 [1, 4] [h] | Tmax [1, 4] [h] | Cmax [1, 5] [ng/mL] | T1/2 [1, 5] [h] | Tmax [1, 5] [h] | AUClast (hg*ng/mL) ([1]; mouse, in vivo, 75 mg/kg) | Cmax ([1]; mouse, in vivo, 75 mg/kg) [ng/mL] | T1/2 ([1]; mouse, in vivo, 75 mg/kg) [h] | Tmax ([1]; mouse, in vivo, 75 mg/kg) [h] | tumor growth inhibition (TGI) compared to vehicle [2] [%] | GI50 [3] [nM] | tumor volume course during treatment [2] |
| --- | --- | --- | --- | --- | --- | --- | --- | --- | --- | --- | --- | --- | --- | --- |
| COc1cc(C)[nH]c(=O)c1CNC(=O)c1c(C)n([C@H](C)C2CCN(CC(F)(F)F)CC2)c2ccccc12 [CPI-1205] |  |  |  |  | 50800 | 1.24 | 0.50 | 59900 |  |  |  | 40 | 574 |  |
| Cc1ncccc1-c1cnc(NCc2c(F)ccc3c2CCO3)n2cnnc12 [MAK683] |  |  |  |  |  |  |  | 13100 | 5660 | 1.18 | 1.00 |  | 73 |  |
| COc1cc(C)[nH]c(=O)c1CN1CCc2c(Cl)cc([C@H](OC)C3COC3)c(Cl)c2C1=O [PF-06821497] |  |  |  |  |  |  |  | 3380 | 3740 | 1.01 | 0.50 | 41 | ~5 |  |

Further lines, with some results ahead:

| AUClast (hg*ng/mL) [1, 4] [hg*ng/mL] | Cmax [1, 4] [ng/mL] | T1/2 [1, 4] [h] | Tmax [1, 4] [h] | Cmax [1, 5] [ng/mL] | T1/2 [1, 5] [h] | Tmax [1, 5] [h] | AUClast (hg*ng/mL) ([1]; mouse, in vivo, 75 mg/kg) | Cmax ([1]; mouse, in vivo, 75 mg/kg) [ng/mL] | T1/2 ([1]; mouse, in vivo, 75 mg/kg) [h] | Tmax ([1]; mouse, in vivo, 75 mg/kg) [h] | SMILES | tumor growth inhibition (TGI) compared to vehicle [2] [%] | GI50 [3] [nM] | tumor volume course during treatment [2] |
| --- | --- | --- | --- | --- | --- | --- | --- | --- | --- | --- | --- | --- | --- | --- |
| 23200 | 9530 | 1.43 | 0.50 |  |  |  |  |  |  |  | CCN(c1cc(-c2ccc(CN3CCOCC3)cc2)cc(C(=O)NCc2c(C)cc(C)[nH]c2=O)c1C)C1CCOCC1 [tazemetostat] | 32 | 385 |  |
| 7600 | 3090 | 3.00 | 1.33 |  |  |  |  |  |  |  | Cc1cc(C)c(CNC(=O)c2cc(Cl)c3c(c2C)O[C@@](C)([C@H]2CC[C@H](N(C)C)CC2)O3)c(=O)[nH]1 [valemetostat] |  | 18 | did not reach full regression |
